Reference: ChEMBL document CHEMBL4354782, “Quinolone antibiotics” (Medchemcomm, 2019)
In brackets after ≈: the same amount, converted by molar mass.

Experiments:
[1] = Cmax in human at 0.75 g, po bid; conditions: in vivo
[2] = test system: Haemophilus influenzae; assay: Antibacterial activity against Haemophilus influenzae with horse blood by agar diffusion method; assay type: functional
[3] = AUC in human at 0.75 g, po bid; conditions: in vivo
[4] = test system: Escherichia coli; assay: Antibacterial activity against Escherichia coli by agar diffusion method; assay type: functional
[5] = test system: Bacteroides fragilis; assay: Antibacterial activity against Bacteroides fragilis by agar diffusion method; assay type: functional
[6] = test system: Klebsiella; assay: Antibacterial activity against Klebsiella by agar diffusion method; assay type: functional
[7] = test system: Enterococcus; assay: Antibacterial activity against Enterococcus by agar diffusion method; assay type: functional
[8] = test system: Streptococcus pyogenes; assay: Antibacterial activity against Streptococcus pyogenes by agar diffusion method; assay type: functional
[9] = Cmax in human at 0.2 g, po bid; assay type: ADME, organism-based; set-up: dose 0.2 g, route oral; conditions: in vivo
[10] = test system: Pseudomonas aeruginosa; assay: Antibacterial activity against Pseudomonas aeruginosa by agar diffusion method; assay type: functional
[11] = species on record: Homo sapiens; assay: Phototoxicity in human; assay type: organism-based; conditions: in vivo
[12] = test system: Staphylococcus aureus; assay: Antibacterial activity against Staphylococcus aureus by agar diffusion method; assay type: functional
[13] = Protein binding in human at 0.2 g, po bid; assay type: ADME, organism-based; conditions: in vivo, read-out: PB (converted)
[14] = test system: Streptococcus pneumoniae; assay: Antibacterial activity against Streptococcus pneumoniae by agar diffusion method; assay type: functional
[15] = AUC in human at 0.2 g, po bid; assay type: ADME, organism-based; conditions: in vivo
[16] = Half life in human at 0.2 g, po bid; assay type: ADME, organism-based; conditions: in vivo
[17] = test system: Clostridium perfringens; assay: microbe, parasite or virus in culture
[18] = AUC in human at 0.6 g, po; assay type: ADME; conditions: in vivo
[19] = Protein binding in human at 0.6 g, po; assay type: ADME; conditions: in vivo, read-out: PB (converted)
[20] = Half life in human at 0.6 g, po; assay type: ADME; conditions: in vivo
[21] = Cmax in human at 0.6 g, po; assay type: ADME; set-up: dose 0.6 g, route oral; conditions: in vivo
[22] = Cmax in human at 0.4 g, po; assay type: ADME; set-up: dose 0.4 g, route oral; conditions: in vivo
[23] = AUC in human at 0.4 g, po; assay type: ADME; conditions: in vivo
[24] = Half life in human at 0.4 g, po; assay type: ADME; conditions: in vivo
[25] = Protein binding in human at 0.4 g, po; assay type: ADME; conditions: in vivo; for fraction unbound: read-out: PB (converted)
[26] = Cmax in human at 0.32 g, po; assay type: ADME; set-up: dose 0.32 g, route oral; conditions: in vivo
[27] = Half life in human at 0.32 g, po; assay type: ADME; conditions: in vivo
[28] = AUC in human at 0.32 g, po; assay type: ADME; conditions: in vivo
[29] = Protein binding in human at 0.32 g, po; assay type: ADME; conditions: in vivo, read-out: PB (converted)
[30] = Toxicity in human assessed as gastrointestinal effect
[31] = Cardiotoxicity in human QTc prolongation; assay type: toxicity
[32] = Toxicity in human assessed as arthralgia effect
[33] = Toxicity in human assessed as hepatic eosinophilia effect
[34] = Toxicity in human assessed as CNS effect by measuring alteration in mentation

Molecule O=C(O)c1cn(C2CC2)c2cc(N3CCNCC3)c(F)cc2c1=O [CIPROFLOXACIN] has a Cmax [1] of 3500 ng/mL, an MIC90 [2] of 0.03 µg/mL (≈ 0.0905 µM) and an AUC [3] of 30000 ng·h/mL. It also gave an MIC90 [4] of 0.03 µg/mL (≈ 0.0905 µM), an MIC90 [5] of 16 µg/mL (≈ 48.3 µM) and an MIC90 [6] of 0.25 µg/mL (≈ 0.754 µM). For the same molecule, the MIC90 [7] was 4 µg/mL (≈ 12.1 µM) and the MIC90 [8] was 1 µg/mL (≈ 3.02 µM).

With NC1CCN(c2c(F)cc3c(=O)c(C(=O)O)cn(C4CC4)c3c2Cl)C1 (configuration not stated) [CLINAFLOXACIN] the Cmax [9] was 1600 ng/mL, the MIC90 [2] was 0.01 µg/mL (≈ 0.0273 µM) and the MIC90 [4] was 0.01 µg/mL (≈ 0.0273 µM). The MIC90 [10] was 0.5 µg/mL (≈ 1.37 µM), the MIC90 [5] was 0.25 µg/mL (≈ 0.683 µM) and the Activity [11] was > 10%. For the same molecule, the MIC90 [6] was 0.03 µg/mL (≈ 0.082 µM), the MIC90 [12] was 0.06 µg/mL (≈ 0.164 µM) and the MIC90 [7] was 0.25 µg/mL (≈ 0.683 µM). It also gave an MIC90 [8] of 0.06 µg/mL (≈ 0.164 µM), a fraction unbound [13] of 0.6 and an MIC90 [14] of 0.12 µg/mL (≈ 0.328 µM). For the same molecule, the AUC [15] was 18000 ng·h/mL, the half-life [16] was 6 h and the MIC90 [17] was 0.12 µg/mL (≈ 0.328 µM).

Work on CCn1cc(C(=O)O)c(=O)c2cc(F)c(N3CCNCC3)nc21 [ENOXACIN] yielded an MIC90 [2] of 0.12 µg/mL (≈ 0.375 µM), an MIC90 [4] of 0.25 µg/mL (≈ 0.78 µM) and an AUC [18] of 29000 ng·h/mL. The MIC90 [10] was > 64 µg/mL, the fraction unbound [19] was 0.4 and the MIC90 [5] was > 64 µg/mL. It also gave a half-life [20] of 2 h, an MIC90 [6] of 2 µg/mL (≈ 6.24 µM) and an MIC90 [12] of 2 µg/mL (≈ 6.24 µM). For the same molecule, the MIC90 [7] was 8 µg/mL (≈ 25 µM), the MIC90 [8] was > 64 µg/mL and the MIC90 [14] was 64 µg/mL (≈ 200 µM). The MIC90 [17] was > 64 µg/mL and the Cmax [21] was 3700 ng/mL.

C[C@H]1NCc2cc(-c3ccc4c(=O)c(C(=O)O)cn(C5CC5)c4c3OC(F)F)ccc21 [GARENOXACIN] showed a Cmax [22] of 5800 ng/mL, an MIC90 [2] of 0.03 µg/mL (≈ 0.0704 µM) and an MIC90 [4] of 0.06 µg/mL (≈ 0.141 µM). The MIC90 [10] was 16 µg/mL (≈ 37.5 µM), the MIC90 [5] was 1 µg/mL (≈ 2.35 µM) and the AUC [23] was 59000 ng·h/mL. The MIC90 [6] was 0.5 µg/mL (≈ 1.17 µM), the MIC90 [12] was 0.03 µg/mL (≈ 0.0704 µM) and the MIC90 [7] was 0.5 µg/mL (≈ 1.17 µM). For the same molecule, the MIC90 [8] was 0.25 µg/mL (≈ 0.586 µM), the MIC90 [14] was 0.12 µg/mL (≈ 0.281 µM) and the half-life [24] was 15 h. It also gave an MIC90 [17] of 0.25 µg/mL (≈ 0.586 µM) and a fraction unbound [25] of 0.13.

Molecule COc1c(N2CCNC(C)C2)c(F)cc2c(=O)c(C(=O)O)cn(C3CC3)c12 (configuration not stated) [GATIFLOXACIN] has a Cmax [22] of 3800 ng/mL, an MIC90 [2] of 0.03 µg/mL (≈ 0.0799 µM) and an MIC90 [4] of 0.06 µg/mL (≈ 0.16 µM). It also gave an MIC90 [10] of 4 µg/mL (≈ 10.7 µM), an MIC90 [5] of 1 µg/mL (≈ 2.66 µM) and an AUC [23] of 33000 ng·h/mL. It also gave an MIC90 [6] of 0.25 µg/mL (≈ 0.666 µM), an MIC90 [12] of 0.25 µg/mL (≈ 0.666 µM) and an MIC90 [7] of 1 µg/mL (≈ 2.66 µM). The MIC90 [8] was 0.25 µg/mL (≈ 0.666 µM), the MIC90 [14] was 0.25 µg/mL (≈ 0.666 µM) and the half-life [24] was 12 h. It also gave an MIC90 [17] of 0.5 µg/mL (≈ 1.33 µM) and a fraction unbound [25] of 0.8.

CO/N=C1\CN(c2nc3c(cc2F)c(=O)c(C(=O)O)cn3C2CC2)CC1CN (configuration not stated) [GEMIFLOXACIN] gave an MIC90 [2] of 0.06 µg/mL (≈ 0.154 µM), an MIC90 [4] of 0.03 µg/mL (≈ 0.077 µM) and an MIC90 [10] of 4 µg/mL (≈ 10.3 µM). For the same molecule, the Cmax [26] was 1000 ng/mL, the half-life [27] was 7 h and the MIC90 [6] was 0.25 µg/mL (≈ 0.642 µM). It also gave an MIC90 [12] of 0.06 µg/mL (≈ 0.154 µM), an AUC [28] of 9000 ng·h/mL and an MIC90 [7] of 4 µg/mL (≈ 10.3 µM). It also gave an MIC90 [8] of 0.06 µg/mL (≈ 0.154 µM), a fraction unbound [29] of 0.4 and an MIC90 [14] of 0.03 µg/mL (≈ 0.077 µM).

Work on Cc1c(F)c(N2CCNC(C)C2)cc2c1c(=O)c(C(=O)O)cn2C1CC1 (configuration not stated) [GREPAFLOXACIN] yielded a Cmax [22] of 1400 ng/mL, an MIC90 [2] of 0.01 µg/mL (≈ 0.0278 µM) and an MIC90 [4] of 0.06 µg/mL (≈ 0.167 µM). The MIC90 [10] was 8 µg/mL (≈ 22.3 µM), the MIC90 [5] was 8 µg/mL (≈ 22.3 µM) and the Activity [30] was > 10%. For the same molecule, the AUC [23] was 14000 ng·h/mL, the MIC90 [6] was 0.12 µg/mL (≈ 0.334 µM) and the MIC90 [12] was 0.12 µg/mL (≈ 0.334 µM). The MIC90 [7] was 4 µg/mL (≈ 11.1 µM), the Activity [31] was 2.9% and the MIC90 [8] was 1 µg/mL (≈ 2.78 µM). For the same molecule, the Activity [32] was 0.5 to 2%, the MIC90 [14] was 0.25 µg/mL (≈ 0.696 µM) and the half-life [24] was 14 h. For the same molecule, the MIC90 [17] was 1 µg/mL (≈ 2.78 µM), the protein-bound fraction ([25]; read-out: PB) was 0.5 and the Activity [33] was 0.006%.

C[C@H]1COc2c(N3CCN(C)CC3)c(F)cc3c(=O)c(C(=O)O)cn1c23.C[C@H]1COc2c(N3CCN(C)CC3)c(F)cc3c(=O)c(C(=O)O)cn1c23.O [LEVOFLOXACIN] showed an Activity [34] of 0.026% and an Activity [32] of 0.5 to 2%.
